Source: ChEMBL document CHEMBL1201862, “PubChem BioAssay data set” (2004)
Active and inactive are the calls of the source.

Key:
H4 = experiment: Luminescence Cell-Based Dose Response HTS to Identify Activators of 5'UTR Stem-Loop Driven Prion Protein mRNA Translation in H4 Neuroglioblastoma Cells. [Related pubchem assays: 1829 (Project Summary), 1814 (Primary HTS)]; format: functional; conditions: Homo sapiens
[1] = Luminescence Cell-Based Dose Confirmation HTS to Identify Inhibitors of Platelet Dense Granule Release. [Related pubchem assays: 1663 (Primary HTS), 1678 (Summary of Project)]; format: functional
[2] = biological target: Luciferin 4-monooxygenase (Photinus pyralis, UniProt P08659); experiment: firefly luciferase enzyme inhibitors, dose response, biochemical, luminescence (AID 1891)
Luciferin 4-monooxygenase, sequence (P08659 whole entry): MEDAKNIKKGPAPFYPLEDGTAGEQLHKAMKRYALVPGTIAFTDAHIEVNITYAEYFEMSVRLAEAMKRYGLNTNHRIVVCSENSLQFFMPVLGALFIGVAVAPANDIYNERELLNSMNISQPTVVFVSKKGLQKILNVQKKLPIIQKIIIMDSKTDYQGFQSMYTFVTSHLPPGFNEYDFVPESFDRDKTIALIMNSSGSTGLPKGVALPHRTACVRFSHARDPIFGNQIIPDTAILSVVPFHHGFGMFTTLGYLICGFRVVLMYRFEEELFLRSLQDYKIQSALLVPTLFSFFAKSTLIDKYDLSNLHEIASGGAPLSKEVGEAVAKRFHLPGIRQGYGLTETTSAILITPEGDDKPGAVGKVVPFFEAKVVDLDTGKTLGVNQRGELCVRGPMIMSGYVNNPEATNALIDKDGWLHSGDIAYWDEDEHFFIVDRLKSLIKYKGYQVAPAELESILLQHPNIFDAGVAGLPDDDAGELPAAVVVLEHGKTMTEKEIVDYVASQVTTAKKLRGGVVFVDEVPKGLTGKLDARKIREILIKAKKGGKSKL

HeLa = experiment: HeLa cell cytotoxicity, dose response, cytotoxicity control for MITF activator project, CellTiter-Glo luminescence, cherry-pick samples (AID 540259); format: functional, cell-based; conditions: Homo sapiens
[3] = Luminescence Cell-Based Dose Response HTS to Identify Activators of Luciferase Translation or Activity in H4 […] Cells. [Related pubchem assays: 1829 (Project Summary), 1814 (Primary HTS)]; format: functional
[4] = Luminescence Cell-Based Dose Confirmation HTS to Identify Activators of 5'UTR Stem-Loop Driven Alpha-Synuclein mRNA Translation in H4 Neuroglioblastoma Cells. [Related pubchem assays: 1829 (Project Summary), 1814 (Primary HTS)]; format: functional
Fatty acid synthase [5] = biological target: T1, Fatty acid synthase (Homo sapiens, UniProt P49327); experiment: FAS thioesterase domain inhibitors, dose response, biochemical, endpoint fluorescence intensity, uHTS hits (AID 624327); format: functional;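 note: fluorescence from hydrolysis of an O-methyl fluorescein acyl ester substrate by the enzyme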
T1 sequence (P49327 whole entry, the tested form may be a part): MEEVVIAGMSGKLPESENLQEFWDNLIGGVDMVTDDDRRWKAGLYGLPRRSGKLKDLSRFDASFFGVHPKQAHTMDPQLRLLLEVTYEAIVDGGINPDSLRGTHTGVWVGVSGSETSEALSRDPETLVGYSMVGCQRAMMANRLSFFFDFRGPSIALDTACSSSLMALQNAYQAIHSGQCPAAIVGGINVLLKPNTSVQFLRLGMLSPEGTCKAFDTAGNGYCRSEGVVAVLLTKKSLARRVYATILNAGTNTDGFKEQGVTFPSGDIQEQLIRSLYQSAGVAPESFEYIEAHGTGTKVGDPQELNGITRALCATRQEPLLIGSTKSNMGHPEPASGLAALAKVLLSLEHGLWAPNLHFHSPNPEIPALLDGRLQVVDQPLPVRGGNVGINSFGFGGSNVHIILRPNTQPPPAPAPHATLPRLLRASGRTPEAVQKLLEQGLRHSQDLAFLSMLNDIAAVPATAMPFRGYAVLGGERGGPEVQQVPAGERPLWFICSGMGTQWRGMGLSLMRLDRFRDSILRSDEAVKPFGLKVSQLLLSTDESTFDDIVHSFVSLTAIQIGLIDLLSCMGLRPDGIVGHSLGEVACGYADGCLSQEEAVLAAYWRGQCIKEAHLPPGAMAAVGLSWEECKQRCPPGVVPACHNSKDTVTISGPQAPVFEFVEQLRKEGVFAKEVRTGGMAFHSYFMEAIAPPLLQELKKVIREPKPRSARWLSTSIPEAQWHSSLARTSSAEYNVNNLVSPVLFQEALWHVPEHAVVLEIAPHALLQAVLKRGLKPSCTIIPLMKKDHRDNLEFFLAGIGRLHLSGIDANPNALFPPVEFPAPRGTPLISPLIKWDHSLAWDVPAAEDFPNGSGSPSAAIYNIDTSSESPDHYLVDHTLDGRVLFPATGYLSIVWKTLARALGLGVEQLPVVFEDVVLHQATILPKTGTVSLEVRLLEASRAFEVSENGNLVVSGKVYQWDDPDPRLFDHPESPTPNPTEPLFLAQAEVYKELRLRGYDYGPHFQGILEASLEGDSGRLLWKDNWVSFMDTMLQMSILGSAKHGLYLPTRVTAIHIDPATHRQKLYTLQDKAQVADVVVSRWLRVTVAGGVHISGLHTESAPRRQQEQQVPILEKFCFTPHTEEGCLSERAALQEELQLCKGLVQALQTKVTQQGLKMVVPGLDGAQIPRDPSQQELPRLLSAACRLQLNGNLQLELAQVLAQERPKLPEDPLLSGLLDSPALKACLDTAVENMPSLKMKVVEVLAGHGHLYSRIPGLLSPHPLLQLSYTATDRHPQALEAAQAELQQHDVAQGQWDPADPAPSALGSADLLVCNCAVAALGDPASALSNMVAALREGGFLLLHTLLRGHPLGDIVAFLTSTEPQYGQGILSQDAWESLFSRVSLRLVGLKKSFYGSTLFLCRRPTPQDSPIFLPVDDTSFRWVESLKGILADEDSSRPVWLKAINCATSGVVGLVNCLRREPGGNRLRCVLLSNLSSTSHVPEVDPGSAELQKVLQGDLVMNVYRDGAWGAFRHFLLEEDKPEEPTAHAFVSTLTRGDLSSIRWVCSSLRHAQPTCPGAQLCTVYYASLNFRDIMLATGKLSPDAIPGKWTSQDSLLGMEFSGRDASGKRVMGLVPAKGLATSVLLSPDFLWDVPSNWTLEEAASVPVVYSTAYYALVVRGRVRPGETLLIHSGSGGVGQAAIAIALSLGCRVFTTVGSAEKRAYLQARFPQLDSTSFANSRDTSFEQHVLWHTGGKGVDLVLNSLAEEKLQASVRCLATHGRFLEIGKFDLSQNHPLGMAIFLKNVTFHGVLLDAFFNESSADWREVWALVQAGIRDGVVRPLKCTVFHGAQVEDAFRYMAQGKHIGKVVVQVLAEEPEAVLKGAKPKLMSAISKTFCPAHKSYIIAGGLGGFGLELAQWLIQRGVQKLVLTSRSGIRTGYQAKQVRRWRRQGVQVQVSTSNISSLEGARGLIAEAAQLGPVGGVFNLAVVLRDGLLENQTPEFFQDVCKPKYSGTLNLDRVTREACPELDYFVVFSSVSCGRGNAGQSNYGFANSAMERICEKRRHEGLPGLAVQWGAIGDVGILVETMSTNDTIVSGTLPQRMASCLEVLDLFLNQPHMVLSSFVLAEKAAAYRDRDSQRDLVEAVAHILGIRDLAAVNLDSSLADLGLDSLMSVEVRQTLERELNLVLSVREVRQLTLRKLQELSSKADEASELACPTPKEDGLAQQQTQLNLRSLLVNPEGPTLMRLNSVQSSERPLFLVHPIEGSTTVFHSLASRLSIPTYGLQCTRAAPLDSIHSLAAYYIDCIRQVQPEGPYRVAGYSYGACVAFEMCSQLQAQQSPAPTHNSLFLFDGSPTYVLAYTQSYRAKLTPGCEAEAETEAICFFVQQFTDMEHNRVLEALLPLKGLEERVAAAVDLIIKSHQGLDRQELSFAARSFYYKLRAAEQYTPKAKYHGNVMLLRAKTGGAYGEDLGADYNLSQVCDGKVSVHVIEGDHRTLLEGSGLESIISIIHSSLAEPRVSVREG

[6] = biological target: T2, Type-1 angiotensin II receptor (Homo sapiens, UniProt P30556); experiment: AT1 receptor antagonists, dose response, selectivity assay for APJ receptor antagonist project, cell-based, uHTS hits (AID 463214); format: functional;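 note: antagonist potency against angiotensin II stimulated AT1 response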
T2 sequence (P30556 whole entry): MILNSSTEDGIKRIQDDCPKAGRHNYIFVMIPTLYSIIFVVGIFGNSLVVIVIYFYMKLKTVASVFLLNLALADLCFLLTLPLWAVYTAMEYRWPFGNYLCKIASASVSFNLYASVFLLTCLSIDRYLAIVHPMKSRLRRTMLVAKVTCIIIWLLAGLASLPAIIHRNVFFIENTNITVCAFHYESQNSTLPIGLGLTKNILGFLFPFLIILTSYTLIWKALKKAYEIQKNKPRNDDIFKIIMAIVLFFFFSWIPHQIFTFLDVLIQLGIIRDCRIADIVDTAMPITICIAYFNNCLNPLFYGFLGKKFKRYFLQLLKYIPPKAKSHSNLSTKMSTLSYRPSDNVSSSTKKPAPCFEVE

Beta-galactosidase = Beta-galactosidase (Escherichia coli, UniProt Q8VNN2); experiment: PubChem AID 485352; format: functional
Beta-galactosidase, sequence (Q8VNN2 whole entry): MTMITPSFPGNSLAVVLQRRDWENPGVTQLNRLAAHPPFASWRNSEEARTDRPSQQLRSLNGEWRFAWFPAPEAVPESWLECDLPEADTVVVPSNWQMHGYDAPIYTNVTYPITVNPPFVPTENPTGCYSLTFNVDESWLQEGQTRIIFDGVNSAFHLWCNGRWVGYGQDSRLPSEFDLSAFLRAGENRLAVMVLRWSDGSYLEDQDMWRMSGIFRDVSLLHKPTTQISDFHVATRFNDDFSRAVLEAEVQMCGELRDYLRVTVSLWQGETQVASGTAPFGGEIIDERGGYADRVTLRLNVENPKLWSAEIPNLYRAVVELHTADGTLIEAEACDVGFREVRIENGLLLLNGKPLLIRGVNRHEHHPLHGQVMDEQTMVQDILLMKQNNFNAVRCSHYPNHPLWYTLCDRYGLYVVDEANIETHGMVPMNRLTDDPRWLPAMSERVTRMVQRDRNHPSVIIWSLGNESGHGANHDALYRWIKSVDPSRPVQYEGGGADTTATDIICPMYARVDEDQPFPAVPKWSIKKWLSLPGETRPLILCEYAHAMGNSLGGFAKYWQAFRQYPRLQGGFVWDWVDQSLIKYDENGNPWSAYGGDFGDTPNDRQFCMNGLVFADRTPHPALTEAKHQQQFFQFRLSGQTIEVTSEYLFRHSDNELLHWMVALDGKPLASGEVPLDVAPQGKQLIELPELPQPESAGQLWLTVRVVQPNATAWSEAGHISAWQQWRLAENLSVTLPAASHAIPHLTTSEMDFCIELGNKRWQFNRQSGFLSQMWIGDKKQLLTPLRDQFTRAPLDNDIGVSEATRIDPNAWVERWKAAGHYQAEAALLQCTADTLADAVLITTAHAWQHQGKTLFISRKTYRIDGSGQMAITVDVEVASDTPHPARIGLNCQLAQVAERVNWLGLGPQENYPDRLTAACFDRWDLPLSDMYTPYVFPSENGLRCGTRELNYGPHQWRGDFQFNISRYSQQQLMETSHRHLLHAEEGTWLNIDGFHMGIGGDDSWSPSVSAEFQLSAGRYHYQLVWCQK

[7] = Shn3 3'UTR reporter inhibitors, dose response, cell-based, Clone20 osteoblasts, firefly luciferase, cherry-picked (AID 624132); format: functional;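 note: firefly luciferase luminescence from reporter carrying the Shn3 3'UTR in osteoblasts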
INS1 = experiment: beta cell apoptosis inhibitors, cytokine rescue, dose response, luminescence, retest (AID 449756); format: functional, cell-based; conditions: Rattus norvegicus;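 note: cell death triggered by IL-1 beta plus TNF-alpha plus IFN-gamma mixture; protective hits raise ATP signal compared with cytokine alone wells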
CHO = experiment: cytotoxicity in TLR9-MyD88 CHO cells, dose response, cytotoxicity control for TLR9-MyD88 binding inhibitor project, cell-based, luminescence (AID 588339); format: functional, hamster; conditions: Cricetulus griseus;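 note: CHO cells stably coexpressing TLR9 and MyD88 fusions from primary screen; compound exposure lasted 48 hours before viability readout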
Fatty acid synthase [8] = biological target: T1, Fatty acid synthase; experiment: FAS thioesterase domain inhibitors, dose response, biochemical, kinetic fluorescence intensity (AID 624326); format: functional;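 note: rate of fluorescence rise from hydrolysis of a fluorogenic O-methyl fluorescein ester substrate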
[9] = control 3'UTR Renilla luciferase suppression, dose response, counter-screen for Shn3 inhibitor project, cell-based, Clone20-Shn3RL, cherry-picked (AID 624133); format: functional
[10] = HepG2 cell cytotoxicity, dose response, cytotoxicity control for Shn3 inhibitor project, CellTiter-Glo, cherry-picked (AID 624134); format: functional, cell-based
[11] = biological target: T3, Carboxy-terminal domain RNA polymerase II polypeptide A small phosphatase 1 (Homo sapiens, UniProt Q9GZU7); experiment: inhibitors of CTDSP1, concentration-response testing, biochemical assay, absorbance-based, actives from ultra-high-throughput screening (AID 540297); format: functional
T3 sequence (Q9GZU7 whole entry): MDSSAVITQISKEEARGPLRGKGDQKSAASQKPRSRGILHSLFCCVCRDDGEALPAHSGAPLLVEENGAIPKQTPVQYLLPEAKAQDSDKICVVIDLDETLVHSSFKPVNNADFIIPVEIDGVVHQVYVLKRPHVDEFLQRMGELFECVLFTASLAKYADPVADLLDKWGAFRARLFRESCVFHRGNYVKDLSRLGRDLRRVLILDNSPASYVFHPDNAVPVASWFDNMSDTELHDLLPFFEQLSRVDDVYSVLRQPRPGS

[12] = biological target: T4, Apoptotic protease-activating factor 1 (Homo sapiens, UniProt O14727); format: functional
T4 sequence (O14727 whole entry): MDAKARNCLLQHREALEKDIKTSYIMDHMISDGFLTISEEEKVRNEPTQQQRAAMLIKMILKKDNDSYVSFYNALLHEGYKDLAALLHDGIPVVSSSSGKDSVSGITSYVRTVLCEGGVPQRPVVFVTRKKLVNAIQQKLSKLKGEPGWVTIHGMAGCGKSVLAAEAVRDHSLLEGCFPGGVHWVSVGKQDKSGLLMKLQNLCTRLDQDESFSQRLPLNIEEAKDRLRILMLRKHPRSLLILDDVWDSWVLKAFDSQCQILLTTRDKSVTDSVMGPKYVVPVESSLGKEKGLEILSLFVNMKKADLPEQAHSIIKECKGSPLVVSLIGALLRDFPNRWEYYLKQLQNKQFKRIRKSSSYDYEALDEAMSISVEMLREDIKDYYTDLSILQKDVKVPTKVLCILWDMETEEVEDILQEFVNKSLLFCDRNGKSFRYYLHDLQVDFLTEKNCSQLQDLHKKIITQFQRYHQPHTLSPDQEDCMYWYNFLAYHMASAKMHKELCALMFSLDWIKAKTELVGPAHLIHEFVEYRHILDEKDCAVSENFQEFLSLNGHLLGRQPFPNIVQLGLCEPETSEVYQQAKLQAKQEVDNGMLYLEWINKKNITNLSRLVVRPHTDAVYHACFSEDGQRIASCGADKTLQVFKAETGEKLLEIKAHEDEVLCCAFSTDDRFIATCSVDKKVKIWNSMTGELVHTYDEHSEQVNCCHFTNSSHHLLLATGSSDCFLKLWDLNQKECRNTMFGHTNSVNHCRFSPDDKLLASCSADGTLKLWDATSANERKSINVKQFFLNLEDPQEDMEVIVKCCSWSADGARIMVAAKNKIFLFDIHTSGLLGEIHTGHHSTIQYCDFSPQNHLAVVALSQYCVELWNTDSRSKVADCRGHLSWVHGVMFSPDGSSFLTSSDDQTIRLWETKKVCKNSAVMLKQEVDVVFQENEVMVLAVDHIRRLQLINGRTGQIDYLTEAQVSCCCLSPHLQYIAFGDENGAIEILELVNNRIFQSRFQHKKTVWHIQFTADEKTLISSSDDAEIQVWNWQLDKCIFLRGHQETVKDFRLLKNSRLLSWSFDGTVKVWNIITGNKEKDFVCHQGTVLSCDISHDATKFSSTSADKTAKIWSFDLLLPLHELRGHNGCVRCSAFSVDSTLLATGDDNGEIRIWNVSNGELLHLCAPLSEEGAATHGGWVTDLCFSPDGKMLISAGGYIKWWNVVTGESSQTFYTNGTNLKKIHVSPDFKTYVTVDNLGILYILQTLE

[13] = biological target: 5-hydroxytryptamine receptor 5A (Homo sapiens, UniProt P47898); experiment: Counterscreen for agonists of OPRM1-OPRD1 heterodimerization: luminescence-based cell-based high throughput dose response assay to identify agonists of 5-hydroxytryptamine (serotonin) 5A receptor (HTR5A). [Related pubchem assays (depositor defined):AID504326, AID504355, AID504692, AID504904, AID504905]; format: functional
Mu-type opioid receptor = Mu-type opioid receptor (Homo sapiens, UniProt P35372); experiment: (§1) Counterscreen for agonists of heterodimerization of the mu 1 (OPRM1) and delta 1 (OPRD1) opioid receptors: Luminescence-based cell-based high throughput dose response assay to identify agonists of OPRM1 homodimerization.; format: functional
Mu-type opioid receptor, sequence (P35372 whole entry): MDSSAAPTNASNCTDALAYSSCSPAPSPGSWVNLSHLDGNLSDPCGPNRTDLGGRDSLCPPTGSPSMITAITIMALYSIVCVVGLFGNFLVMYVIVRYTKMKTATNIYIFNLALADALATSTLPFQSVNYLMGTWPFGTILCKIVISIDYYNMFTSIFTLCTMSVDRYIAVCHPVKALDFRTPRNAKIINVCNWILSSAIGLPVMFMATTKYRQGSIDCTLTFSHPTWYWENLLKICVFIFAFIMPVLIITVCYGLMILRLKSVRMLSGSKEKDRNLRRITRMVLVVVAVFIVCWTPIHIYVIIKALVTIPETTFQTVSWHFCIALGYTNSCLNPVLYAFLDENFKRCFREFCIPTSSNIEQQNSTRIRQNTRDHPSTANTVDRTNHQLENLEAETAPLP

[14] = biological target: T5, Short transient receptor potential channel 4 (Mus musculus, UniProt Q9QUQ5); experiment: mouse TRPC4 channel activators, dose response, cell-based, HEK293 TRPC4/mu-opioid, Fluo-4 calcium (AID 434937); format: functional
T5 sequence (Q9QUQ5 whole entry): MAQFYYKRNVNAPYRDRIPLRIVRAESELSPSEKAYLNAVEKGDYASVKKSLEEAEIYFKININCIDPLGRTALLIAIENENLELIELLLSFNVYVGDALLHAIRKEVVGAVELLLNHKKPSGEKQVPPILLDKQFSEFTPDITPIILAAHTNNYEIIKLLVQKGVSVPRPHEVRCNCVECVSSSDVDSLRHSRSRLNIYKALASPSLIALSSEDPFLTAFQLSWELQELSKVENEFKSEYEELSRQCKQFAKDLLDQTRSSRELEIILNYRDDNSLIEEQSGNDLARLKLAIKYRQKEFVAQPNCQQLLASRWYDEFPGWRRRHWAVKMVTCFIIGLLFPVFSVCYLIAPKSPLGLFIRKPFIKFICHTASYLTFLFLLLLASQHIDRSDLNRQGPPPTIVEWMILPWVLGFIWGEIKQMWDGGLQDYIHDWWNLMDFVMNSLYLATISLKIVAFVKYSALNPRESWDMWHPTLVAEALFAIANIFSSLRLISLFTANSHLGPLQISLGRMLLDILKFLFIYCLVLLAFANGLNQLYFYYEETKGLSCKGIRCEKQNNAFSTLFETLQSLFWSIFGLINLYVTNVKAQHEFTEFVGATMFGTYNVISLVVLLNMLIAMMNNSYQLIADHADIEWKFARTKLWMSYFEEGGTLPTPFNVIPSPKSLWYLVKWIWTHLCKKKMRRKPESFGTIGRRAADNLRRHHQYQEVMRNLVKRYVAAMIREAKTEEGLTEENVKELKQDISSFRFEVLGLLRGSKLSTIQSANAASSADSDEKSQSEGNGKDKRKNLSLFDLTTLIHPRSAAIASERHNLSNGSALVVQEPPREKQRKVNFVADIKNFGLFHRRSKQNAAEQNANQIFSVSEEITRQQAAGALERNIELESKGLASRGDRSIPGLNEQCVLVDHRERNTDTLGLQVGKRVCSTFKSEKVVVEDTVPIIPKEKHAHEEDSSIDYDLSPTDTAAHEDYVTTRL

[15] = biological target: T5, Short transient receptor potential channel 4; experiment: mouse TRPC4 channel inhibitors, dose response, cell-based, HEK293 TRPC4/mu-opioid, Fluo-4 calcium (AID 434942); format: functional;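 note: potency of inhibitors blocking the TRPC4 calcium response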
[16] = biological target: Delta-type opioid receptor (Homo sapiens, UniProt P41143); experiment: as §1, with “of OPRD1” for “of OPRM1”, “homodimerization. [Related pubchem assays (depositor defined):AID504326, AID504355, AID504692, AID504904, AID504905]” for “homodimerization.”; format: functional
Delta-type opioid receptor, sequence (P41143 whole entry): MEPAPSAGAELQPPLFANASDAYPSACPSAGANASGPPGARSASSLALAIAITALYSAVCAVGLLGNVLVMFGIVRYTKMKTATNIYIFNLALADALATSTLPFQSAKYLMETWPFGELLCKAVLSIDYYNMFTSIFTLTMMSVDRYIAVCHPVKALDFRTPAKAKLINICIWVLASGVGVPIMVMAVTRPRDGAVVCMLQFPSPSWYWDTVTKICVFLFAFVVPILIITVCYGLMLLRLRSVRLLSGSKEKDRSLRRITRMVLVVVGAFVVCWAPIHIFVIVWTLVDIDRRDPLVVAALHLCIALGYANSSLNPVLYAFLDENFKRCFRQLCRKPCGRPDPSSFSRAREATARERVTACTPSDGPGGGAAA

c1ccc(C2=NN(c3ccccc3)CC2)cc1
EC50 (H4): > 120 µM (not active)
EC50 [1]: > 112 µM (not active)
EC50 [2]: > 112 µM (not active)
AC50 (HeLa): 85.4 µM (active)
EC50 [3]: 0.187 µM (active)
EC50 [4]: 110 nM (active)

CN(c1ccccc1)S(=O)(=O)c1ccc(NC(=O)c2nc(S(C)(=O)=O)ncc2Cl)cc1
IC50 (Fatty acid synthase [5]): 5.88 µM (active)
IC50 [6]: 3.14 µM (active)
EC50 (Beta-galactosidase): > 40 µM (inactive)
AC50 [7]: 502 nM (active)
AC50 (INS1): 5.65 µM (active)
IC50 (CHO): 2.03 µM (active)
IC50 (Fatty acid synthase [8]): 5.01 µM (active)
AC50 [9]: 2.77 µM (active)
AC50 [10]: 10.5 µM (active)

CCCn1ncc2c(Nc3ccc(C)c(C)c3)ncnc21
AC50 (HeLa): 39.8 µM (active)

Nn1c(SCC(=O)NC(=O)NCc2ccco2)nnc1-c1ccc(OC(F)F)cc1
IC50 [11]: 3.75 µM (active)

CCc1ccc(NC(=O)c2cc(-c3cccs3)on2)cc1
AC50 (HeLa): 160 µM (active)

CC(C)CC[n+]1ccn(C2=C([N-]S(=O)(=O)c3ccccc3)C(=O)c3ccccc3C2=O)c1
IC50 [12]: 12.9 µM (active)

Cc1ccc(C2(O)C[N+](c3ccccc3)=C3SCCN32)cc1 (centres undefined)
EC50 [13]: > 92.5 µM (inactive)
EC50 (Mu-type opioid receptor): 48.2 µM (inactive)
EC50 [14]: 596 nM (active)
EC50 [15]: 237 nM (active)
EC50 [16]: > 92.5 µM (inactive)

Cc1ccc(Cl)cc1N1CCN(C(=O)CN(c2ccccc2)S(=O)(=O)N(C)C)CC1
IC50 [11]: 5.49 µM (active)

Oc1ccc(Br)cc1/C=N/N1CCCCC1
EC50 (H4): > 120 µM (not active)
AC50 (HeLa): 41.4 µM (active)
EC50 [3]: > 120 µM (not active)
EC50 [4]: 4760 nM (active)
